Earlier results in patent publication US11103503B2, “Pharmaceutical compositions of Lurasidone” (SLAYBACK PHARMA LLC, priority 2019, dated 2021).

Key:
[1] = fed state

solubility in water: very slightly soluble
administered dose absorbed [1]: 9-19%
Structure (SMILES): O=C1[C@@H]2[C@H]3CC[C@H](C3)[C@@H]2C(=O)N1C[C@@H]1CCCC[C@H]1CN1CCN(c2nsc3ccccc23)CC1 [Lurasidone, N-4-4-(1,2-benzisothiazol-3-yl)-1-piperazinyl-(2R,3R)-2,3-tetramethylene-butyl-(1R,2S,3R,4'S)-2,3-bicyclo[2.2.1]heptanedicarboxyimide]
